Earlier results, collected in patent publication US7044945B2, “Prevention of regression in thermal ciliary muscle tendinoplasty” (priority 2001, dated 2006).

What was measured:
[1] = test system: healing wound
[2] = in mammals

Row | solubility in water and alcohol | Structure (SMILES) | tensile strength of the wounds ([1]; compared with controls) | thermal shrinkage temperature of individual collagen fibers from the wounds ([1]; treated wounds compared to comparable controls) | toxicity [2]
1 | – | CCN=C=NCCCN(C)C.Cl [1-ethyl-1-3 (3-dimethylaminopropyl) carbodiimide hydrochloride] | sizable increase | increased | –
2 | completely soluble | OCC(O)CO [glycerol] | – | – | very low toxicity
